What was measured:
Assay type in all cases: biochemical
MMP-8 = target: T1, MMP-8 (Homo sapiens, UniProt P22894); assay: In vitro MMP-8 inhibition test; conditions: human MMP-8
T1 construct: purchased R&D Systems 908-MP
Description: (§1) The MMP-mediated amidolytic cleavage of a suitable peptide substrate leads to an increase in fluorescent light here too. The signal intensity of the fluorescent light is directly proportional to the enzyme activity. The active concentration of a test compound at which half the enzyme is inhibited (50% signal intensity of the fluorescent light) is reported as the IC50 value.
(§2) Recombinant MMP-8 (R&D Systems, 908-MP) is chemically activated in accordance with the manufacturer's instructions using APMA. 1 μl of the test compound to be analysed (as a solution in DMSO, suitable concentrations e.g. 1 nM to 30 μM) is pipetted into 24 μl of activated enzyme (final concentration e.g. 0.5 nM) in reaction buffer (50 mM Tris/HCl pH 7.5, 10 mM CaCl2, 150 mM NaCl, 0.05% Brij®-35) in a white 384-hole microtiter plate (MTP). The enzymatic reaction is started by adding the intramolecularly quenched Mca-Pro-Leu-Gly-Leu-Dpa(Dnp)-Ala-Arg-NH2 substrate (final concentration e.g. 10 μM; R&D Systems, ES-001), so as to result in a total test volume of 50 μl. The course of the MMP-8 reaction is measured by measuring the fluorescence intensity (excitation 320 nm, emission 410 nm) over a suitable period of time (e.g. over 120 min at a temperature of 32° C.).

MMP-7 = target: T2, MMP-7 (Homo sapiens, UniProt P09237); assay: In vitro MMP-7 inhibition test; conditions: human MMP-7
T2 construct: purchased R&D Systems 907-MP
T2 sequence (P09237 95-267): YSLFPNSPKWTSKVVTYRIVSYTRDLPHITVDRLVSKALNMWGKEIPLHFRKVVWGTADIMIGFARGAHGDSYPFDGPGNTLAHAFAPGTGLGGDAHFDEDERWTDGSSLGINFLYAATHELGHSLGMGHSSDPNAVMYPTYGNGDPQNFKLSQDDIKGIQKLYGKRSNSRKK
Description: as §1
as §2, with “MMP-7 (from R&D” for “MMP-8 (R&D”, “907-MP)” for “908-MP)”, “MMP-7” for “MMP-8”

MMP-10 = target: T3, MMP-10 (Homo sapiens, UniProt P09238); assay: In vitro MMP-10 inhibition test; conditions: human MMP-10
T3 construct: purchased R&D Systems 910-MP
T3 sequence (P09238 99-476): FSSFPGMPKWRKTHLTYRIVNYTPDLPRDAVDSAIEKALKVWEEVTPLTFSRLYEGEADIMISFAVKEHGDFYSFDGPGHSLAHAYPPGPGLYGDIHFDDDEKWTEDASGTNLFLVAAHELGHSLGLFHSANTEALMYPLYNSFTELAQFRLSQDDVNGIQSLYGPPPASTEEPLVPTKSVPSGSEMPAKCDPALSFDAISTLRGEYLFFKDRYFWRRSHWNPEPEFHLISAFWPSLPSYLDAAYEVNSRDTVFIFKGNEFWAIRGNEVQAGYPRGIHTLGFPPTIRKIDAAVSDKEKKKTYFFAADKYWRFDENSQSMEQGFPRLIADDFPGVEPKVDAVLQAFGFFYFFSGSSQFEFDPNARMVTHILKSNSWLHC
Description: as §1
as §2, with “MMP-10” for “MMP-8”, “910-MP)” for “908-MP)”, “2” for “0.5”, “Mca-Arg-Pro-Lys-Pro-Val-Glu-Nval-Trp-Arg-Lys(Dnp)-NH2” for “Mca-Pro-Leu-Gly-Leu-Dpa(Dnp)-Ala-Arg-NH2”, “ES-002),” for “ES-001),”

MMP-2 = target: T4, MMP-2 (Homo sapiens, UniProt P08253); assay: In vitro MMP-2 inhibition test; conditions: human MMP-2
T4 construct: purchased R&D Systems 902-MP
T4 sequence (P08253 110-660): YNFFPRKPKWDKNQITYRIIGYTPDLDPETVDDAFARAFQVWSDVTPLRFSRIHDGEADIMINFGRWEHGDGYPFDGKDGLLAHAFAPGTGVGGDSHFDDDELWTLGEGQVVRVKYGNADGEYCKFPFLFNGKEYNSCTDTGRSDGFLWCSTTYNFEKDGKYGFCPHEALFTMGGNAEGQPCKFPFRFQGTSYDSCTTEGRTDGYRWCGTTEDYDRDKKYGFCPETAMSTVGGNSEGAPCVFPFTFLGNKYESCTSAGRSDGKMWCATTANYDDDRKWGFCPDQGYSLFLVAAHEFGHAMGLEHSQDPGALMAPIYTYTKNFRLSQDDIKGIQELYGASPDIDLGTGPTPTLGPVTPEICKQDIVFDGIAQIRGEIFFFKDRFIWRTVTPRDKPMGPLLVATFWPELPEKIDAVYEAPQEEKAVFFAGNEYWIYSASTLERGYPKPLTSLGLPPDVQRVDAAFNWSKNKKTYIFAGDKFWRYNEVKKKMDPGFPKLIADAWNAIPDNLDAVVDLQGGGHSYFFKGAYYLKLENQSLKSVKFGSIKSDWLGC
Description: as §1
as §2, with “MMP-2” for “MMP-8”, “902-MP)” for “908-MP)”, “2” for “0.5”

T1 sequence (P22894 101-467): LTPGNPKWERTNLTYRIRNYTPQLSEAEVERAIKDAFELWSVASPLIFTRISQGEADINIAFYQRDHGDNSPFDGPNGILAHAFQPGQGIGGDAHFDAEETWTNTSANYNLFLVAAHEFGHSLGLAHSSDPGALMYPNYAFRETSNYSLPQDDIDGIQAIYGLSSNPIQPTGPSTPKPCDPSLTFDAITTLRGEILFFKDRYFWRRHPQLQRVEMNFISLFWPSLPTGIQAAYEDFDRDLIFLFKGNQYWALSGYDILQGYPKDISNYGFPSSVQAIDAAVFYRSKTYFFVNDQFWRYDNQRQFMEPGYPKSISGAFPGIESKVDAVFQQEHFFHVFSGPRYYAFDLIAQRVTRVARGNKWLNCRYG

| IC50 (MMP-8) [µM] | IC50 (MMP-7) [µM] | IC50 (MMP-10) [µM] | IC50 (MMP-2) [µM] | SMILES |
| --- | --- | --- | --- | --- |
| 0.37 | > 40 | 2.1 | 0.02 | O=C(CC(CCn1nnc2ccccc2c1=O)C(=O)O)c1coc2cc(OCCC3CCOCC3)ccc12 (racemic) [Example 74, (+/−)-4-Oxo-2-[2-(4-oxo-1,2,3-benzotriazin-3(4H)-yl)ethyl]-4-{6-[2-(tetrahydro-2H-pyran-4-yl)ethoxy]-1-benzofur-3-yl}butanoic acid] |
| 6.7 | > 40 | 22 | 0.29 | CCCCCOc1ccc2c(C(=O)CC(CCn3nnc4ccccc4c3=O)C(=O)O)coc2c1 (racemic) [Example 89, (+/−)-4-Oxo-2-[2-(4-oxo-1,2,3-benzotriazin-3(4H)-yl)ethyl]-4-[6-(pentyloxy)-1-benzofur-3-yl]butanoic acid] |
| 3.2 | 5.3 | 3.4 | 0.083 | O=C(CC(CCn1nnc2ccccc2c1=O)C(=O)O)c1cc2ccc(OCCc3ccccc3)cc2s1 (racemic) [Example 114, (+/−)-4-Oxo-2-[2-(4-oxo-1,2,3-benzotriazin-3(4H)-yl)ethyl]-4-[6-(2-phenylethoxy)-1-benzothiophen-2-yl]butanoic acid] |
| 1.2 | > 40 | 12 | 0.32 | O=C(CC(CCn1nnc2ccccc2c1=O)C(=O)O)c1noc2cc(OCc3ccc(F)cc3)ccc12 (racemic) [Example 136, (+/−)-4-{6-[(4-Fluorobenzyl)oxy]-1,2-benzoxazol-3-yl}-4-oxo-2-[2-(4-oxo-1,2,3-benzotriazin-3(4H)-yl)ethyl]butanoic acid] |
| 2.5 | > 40 | 29 | 0.73 | O=C(CC(CCn1nnc2ccccc2c1=O)C(=O)O)c1noc2cc(OCCc3ccccc3)ccc12 (racemic) [Example 144, (+/−)-4-Oxo-2-[2-(4-oxo-1,2,3-benzotriazin-3(4H)-yl)ethyl]-4-[6-(2-phenylethoxy)-1,2-benzoxazol-3-yl]butanoic acid] |

The remaining lines, values behind:

| SMILES | IC50 (MMP-8) [µM] | IC50 (MMP-7) [µM] | IC50 (MMP-10) [µM] | IC50 (MMP-2) [µM] |
| --- | --- | --- | --- | --- |
| O=C(CC(CCn1nnc2ccccc2c1=O)C(=O)O)c1coc2cc(OCCC3CCCC3)ccc12 (racemic) [Example 75, (+/−)-4-[6-(2-Cyclopentylethoxy)-1-benzofur-3-yl]-4-oxo-2-[2-(4-oxo-1,2,3-benzotriazin-3(4H)-yl)ethyl]butanoic acid] | 3.3 | > 40 | 7.7 | 0.39 |
| CCCCCCCOc1ccc2c(C(=O)CC(CCn3nnc4ccccc4c3=O)C(=O)O)coc2c1 (racemic) [Example 101, (+/−)-4-[6-(Heptyloxy)-1-benzofur-3-yl]-4-oxo-2-[2-(4-oxo-1,2,3-benzotriazin-3(4H)-yl)ethyl]butanoic acid] | 12 | > 40 | > 40 | 0.66 |
| O=C(CC(CCn1nnc2ccccc2c1=O)C(=O)O)c1cc2ccc(OCC3CC3)cc2s1 (racemic) [Example 111, (+/−)-4-[6-(Cyclopropylmethoxy)-1-benzothiophen-2-yl]-4-oxo-2-[2-(4-oxo-1,2,3-benzotriazin-3(4H)-yl)ethyl]butanoic acid] | 0.46 | 4.1 | 4.7 | 0.35 |
| CCCCCOc1ccc2cc(C(=O)CC(CCn3nnc4ccccc4c3=O)C(=O)O)sc2c1 (racemic) [Example 118, (+/−)-4-Oxo-2-[2-(4-oxo-1,2,3-benzotriazin-3(4H)-yl)ethyl]-4-[6-(pentyloxy)-1-benzothiophen-2-yl]butanoic acid] | 9.3 | 30 | 10 | 0.35 |
| CCCCCOc1ccc2c(C(=O)CC(CCn3nnc4ccccc4c3=O)C(=O)O)noc2c1 (racemic) [Example 140, (+/−)-4-Oxo-2-[2-(4-oxo-1,2,3-benzotriazin-3(4H)-yl)ethyl]-4-[6-(pentyloxy)-1,2-benzoxazol-3-yl]butanoic acid] | 0.57 | > 40 | 6.3 | 0.095 |
